Laboratory results published in ChEMBL document CHEMBL5154778, “Discovery and Structure-Based Optimization of Novel Atg4B Inhibitors for the Treatment of Castration-Resistant Prostate Cancer” (J Med Chem, 2022).
Active and inactive are the calls of the source. The calls are words filed in the database; no cut-off is given here.

Assays:
Cysteine protease ATG4B [1] = target: T1, Cysteine protease ATG4B (Homo sapiens, UniProt Q9Y4P1); assay: Inhibition of recombinant ATG4B (unknown origin) expressed in Escherichia coli BL21(DE3) pLysS cells using LC3-GST as substrate incubated for 3 hrs by coomassie brilliant blue staining based assay
T1 sequence (Q9Y4P1 whole entry): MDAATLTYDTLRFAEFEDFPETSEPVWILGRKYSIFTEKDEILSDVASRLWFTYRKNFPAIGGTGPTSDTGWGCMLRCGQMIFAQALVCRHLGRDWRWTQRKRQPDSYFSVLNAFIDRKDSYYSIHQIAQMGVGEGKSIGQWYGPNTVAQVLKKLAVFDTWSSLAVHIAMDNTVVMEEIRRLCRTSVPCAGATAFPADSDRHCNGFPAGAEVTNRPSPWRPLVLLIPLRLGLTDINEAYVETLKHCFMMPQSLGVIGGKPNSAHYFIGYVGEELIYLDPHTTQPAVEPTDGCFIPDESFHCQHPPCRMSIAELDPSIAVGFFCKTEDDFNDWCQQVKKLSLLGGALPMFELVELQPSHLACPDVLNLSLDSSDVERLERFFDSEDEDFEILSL

Phospholipase A2 = Phospholipase A2 (Homo sapiens, UniProt P04054); assay: Inhibition of PLA2 (unknown origin)
Homo sapiens = species on record: Homo sapiens; assay: Selectivity ratio of IC50 for inhibition of PLA2 (unknown origin) to IC50 for inhibition of recombinant ATG4B (unknown origin) expressed in Escherichia coli BL21(DE3) pLysS cells
[2] = target: T2, Cysteine protease ATG4B (Homo sapiens) (UniProt Q9Y4P1); assay: Reversible inhibition of recombinant ATG4B (unknown origin) expressed in Escherichia coli BL21(DE3) pLysS cells at 100 uM using LC3-GST as substrate preincubated for 30 mins with 0.3 uM LC3-GST followed by dialysis and again incubated with 3 uM LC3-GST for 15 mins by coomassie brilliant blue staining based assay; conditions: time 45.0 min
T2 sequence (whole entry): T1 sequence (Q9Y4P1 whole entry)

[3] = target: T2, Cysteine protease ATG4B (Homo sapiens); assay: Inhibition of recombinant ATG4B (unknown origin) expressed in Escherichia coli BL21(DE3) pLysS cells at 10 uM using LC3-GST as substrate incubated for 3 hrs by coomassie brilliant blue staining based assay
[4] = target: T2, Cysteine protease ATG4B (Homo sapiens); assay: Inhibition of recombinant ATG4B (unknown origin) expressed in Escherichia coli BL21(DE3) pLysS cells at 20 to 50 uM using LC3-GST as substrate by coomassie brilliant blue staining based assay; conditions: dose 20-50 µM, time 15-180 min, TDE = time-dependent effect
Cysteine protease ATG4B [5] = target: T1, Cysteine protease ATG4B; assay: Inhibition of recombinant ATG4B (unknown origin) expressed in Escherichia coli BL21(DE3) pLysS cells assessed as inhibition constant using LC3-GST as substrate incubated for 3 hrs by coomassie brilliant blue staining based assay
LNCaP [6] = assay: Inhibition of AFM induced autophagy in human LNCaP cells assessed as restoration of p62 expression at 5 uM by Western blot analysis; assay type: functional, cell-based
LNCaP [7] = assay: Inhibition of AFM induced autophagy in human LNCaP cells assessed as suppression of autophagosome by DAP green staining based assay; assay type: functional, cell-based
LNCaP [8] = assay: Inhibition of abiraterone induced autophagy in human LNCaP cells at 10 uM preincubated for 2 hrs followed by abiraterone addition and measured after 24 hrs by DAP green staining based assay; assay type: functional, cell-based; conditions: time 26.0 hrs
LNCaP [9] = assay: Inhibition of enzalutamide induced autophagy in human LNCaP cells at 10 uM preincubated for 2 hrs followed by enzalutamide addition and measured after 24 hrs by DAP green staining based assay; assay type: functional, cell-based; conditions: time 26.0 hrs
LNCaP [10] = assay: Induction of apoptosis in human LNCaP cells assessed as increase in cleaved capase-9 expression at 10 uM preincubated for 2 hrs followed by abiraterone addition and measured after 24 hrs by Western blotting analysis; assay type: functional, cell-based; conditions: time 26.0 hrs
LNCaP [11] = assay: Induction of apoptosis in human LNCaP cells assessed as increase in cleaved PARP expression at 10 uM preincubated for 2 hrs followed by abiraterone addition and measured after 24 hrs by Western blotting analysis; assay type: functional, cell-based; conditions: time 26.0 hrs
[12] = target: T2, Cysteine protease ATG4B (Homo sapiens); assay: Inhibition of recombinant ATG4B (unknown origin) expressed in Escherichia coli BL21(DE3) pLysS cells at 100 uM using LC3-GST as substrate incubated for 3 hrs by coomassie brilliant blue staining based assay
LNCaP [13] = assay: Anticancer activity against human LNCaP cells assessed as reduction in cell viability incubated for 72 hrs by alamar blue assay; assay type: functional, cell-based; conditions: DDE = dose-dependent effect
LNCaP [14] = assay: Induction of apoptosis in human LNCaP cells assessed PARP cleavage at 10 uM incubated for 24 hrs by immunoblotting analysis; assay type: functional, cell-based
LNCaP [15] = assay: Induction of autophagy in human LNCaP cells assessed as increase in Ser403-phosphorylated P62 level at 1 to 10 uM incubated for 24 hrs by Western blot analysis; assay type: functional, cell-based; conditions: dose 1-10 µM
LNCaP [16] = assay: Induction of autophagy in human LNCaP cells assessed as increase in LC3-2 level at 1 to 10 uM incubated for 24 hrs by Western blot analysis; assay type: functional, cell-based; conditions: dose 1-10 µM
LNCaP [17] = assay: Induction of apoptosis in human LNCaP cells transfected with Atg4B siRNA at 10 uM incubated for 24 hrs by immunoblotting analysis; assay type: functional, cell-based
LNCaP [18] = assay: Induction of apoptosis in human LNCaP cells assessed as increase in cleaved capase-9 expression at 10 uM preincubated for 2 hrs followed by enzalutamide addition and measured after 24 hrs by Western blotting analysis; assay type: functional, cell-based; conditions: time 26.0 hrs
LNCaP [19] = assay: Induction of apoptosis in human LNCaP cells assessed as increase in cleaved PARP expression at 10 uM preincubated for 2 hrs followed by enzalutamide addition and measured after 24 hrs by Western blotting analysis; assay type: functional, cell-based; conditions: time 26.0 hrs
LNCaP [20] = assay: Induction of autophagy in human LNCaP cells assessed as increase in GABARAP2 level at 10 uM preincubated for 2 hrs followed by medium change into aminoacid free medium for 3 hrs by immunoblotting analysis; assay type: functional, cell-based; conditions: time 5.0 hrs
LNCaP [21] = assay: Inhibition of AFM induced autophagy in human LNCaP cells assessed as decrease in autophagic vesicles at 1 uM preincubated for 2 hrs followed by medium change into aminoacid free medium for 3 hrs by DAP green staining based assay; assay type: functional, cell-based; conditions: time 5.0 hrs
LNCaP [22] = assay: Induction of apoptosis in human LNCaP cells assessed as increase in cleaved PARP level at 5 uM preincubated for 2 hrs followed by apalutamide addition and measured after 24 hrs by immunoblotting analysis; assay type: functional, cell-based; conditions: time 26.0 hrs
LNCaP [23] = assay: Induction of apoptosis in human LNCaP cells assessed as increase in cleaved PARP level at 5 uM preincubated for 2 hrs followed by abiraterone addition and measured after 24 hrs by immunoblotting analysis; assay type: functional, cell-based; conditions: time 26.0 hrs
LNCaP [24] = assay: Inhibition of AFM induced autophagy in human LNCaP cells assessed as restoration of p62 expression preincubated for 2 hrs followed by medium change into aminoacid free medium for 24 hrs by immunoblotting analysis; assay type: functional, cell-based; conditions: dose 1-10 µM, time 26.0 hrs, DDE = dose-dependent effect
[25] = Inhibition of AFM induced autophagy in human LNCaP cells assessed as decrease in autophagic vesicles at 5 uM preincubated for 2 hrs followed by medium change into aminoacid free medium for 3 hrs by DAP green staining based assay; assay type: functional; conditions: time 5 hrs
LNCaP [26] = assay: Induction of apoptosis in human LNCaP cells assessed as increase in cleaved PARP level at 5 uM preincubated for 2 hrs followed by cabazitaxel addition and measured after 24 hrs by immunoblotting analysis; assay type: functional, cell-based; conditions: time 26.0 hrs
LNCaP [27] = assay: Induction of apoptosis in human LNCaP cells assessed as increase in cleaved PARP level at 5 uM preincubated for 2 hrs followed by enzalutamide addition and measured after 24 hrs by immunoblotting analysis; assay type: functional, cell-based; conditions: time 26.0 hrs

Phospholipase A2, sequence (P04054 whole entry): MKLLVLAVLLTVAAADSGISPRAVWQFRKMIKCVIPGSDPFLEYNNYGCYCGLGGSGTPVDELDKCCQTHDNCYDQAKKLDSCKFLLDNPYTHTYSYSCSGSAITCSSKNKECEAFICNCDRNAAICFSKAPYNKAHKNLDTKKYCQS

| Structure (SMILES) | IC50 (Cysteine protease ATG4B [1]) | IC50 (Phospholipase A2) | Ratio IC50 (Homo sapiens) | further results |
| --- | --- | --- | --- | --- |
| CCCCCCCCCCCCCCCCCc1ccc(C(=O)/C=C/C(=O)O)cc1 | 47 µM |  |  |  |
| CCCCCCCCCCCCCCCCCCCCCc1ccc(C(=O)/C=C/C(=O)O)cc1 | 42 µM |  |  |  |
| CCCCCCCCCc1ccc(C(=O)/C=C/C(=O)O)cc1 | 21 µM | 8 µM | 93 |  |
| CCCCCCCCCCCCCCCCCCc1ccc(C(=O)/C=C/C(=O)O)cc1 | 12 µM | 0.049 µM | 1 | inhibition [2]: Active; inhibition [3]: Active; inhibition [4]: Tde; Ki (Cysteine protease ATG4B [5]): 4.6 µM; inhibition (LNCaP [6]): Active; inhibition (LNCaP [7]): Active; inhibition (LNCaP [8]): Active; inhibition (LNCaP [9]): Active; Activity (LNCaP [10]): Active; Activity (LNCaP [11]): Active; inhibition [12]: Active |
| CCCCCCCCCCCCCCCCCCCc1ccc(C(=O)/C=C/C(=O)O)cc1 | 73 µM | 0.35 µM | 12 |  |
| O=C(O)/C=C/C(=O)c1ccccc1 | 580 µM |  |  |  |
| C[C@]12CC[C@H](O)CC1=CC[C@@H]1[C@@H]2CC[C@]2(C)C(c3cccnc3)=CC[C@@H]12 |  |  |  | Activity (LNCaP [13]): Dde; Activity (LNCaP [14]): Active; Activity (LNCaP [15]): Active; Activity (LNCaP [16]): Active; Activity (LNCaP [17]): Active; Activity (LNCaP [18]): Active; Activity (LNCaP [19]): Active |
| CCCCCCCCCCCCCCCc1ccc(C(=O)/C=C/C(=O)O)cc1 | 46 µM | 5.4 µM | 29 |  |
| CCCCCc1ccc(C(=O)/C=C/C(=O)O)cc1 | 36 µM | 30 µM | 200 |  |
| CCN(CC)CCCC(C)Nc1ccnc2cc(Cl)ccc12 (stereo unspecified) |  |  |  | Activity (LNCaP [20]): Active |
| CCCCCCCCCCCCc1ccc(C(=O)/C=C/C(=O)O)cc1 | 13 µM | 1.3 µM | 24 |  |
| CCCCCCCc1ccc(C(=O)/C=C/C(=O)O)cc1 | 26 µM | 5.9 µM | 56 |  |
| CCCCCCCCCCCc1ccc(C(=O)/C=C/C(=O)O)cc1 | 11 µM | 3.5 µM | 80 | inhibition (LNCaP [21]): Active; Activity (LNCaP [22]): Active; Ki (Cysteine protease ATG4B [5]): 3.1 µM; Activity (LNCaP [23]): Active; inhibition (LNCaP [24]): Dde; inhibition at 5 µM [25]: 100%; Activity (LNCaP [26]): Active; Activity (LNCaP [27]): Active |
| CCCCCCCCCCc1ccc(C(=O)/C=C/C(=O)O)cc1 | 13 µM | 1.6 µM | 30 |  |
| CCCc1ccc(C(=O)/C=C/C(=O)O)cc1 | 130 µM |  |  |  |
| CCCCCCCCCCCCCc1ccc(C(=O)/C=C/C(=O)O)cc1 | 21 µM | 7.1 µM | 85 |  |
